Results taken from the supplement of paper PMC6315032.

What was measured:
Assay in all cases: apparent dissociation constant (pKDapp, Kinobeads competition, Cheng-Prusoff corrected) (-log10 M); higher = tighter binding
ABL2 = ABL2 (UniProt P42684); conditions: affinity matrix / lysate: Kinobeads, mixed HEK293/K-562/placenta lysate
ACVR1 = ACVR1 (UniProt Q04771); conditions: affinity matrix / lysate: Kinobeads, mixed HEK293/K-562/placenta lysate
ARAF = ARAF (UniProt P10398); conditions: affinity matrix / lysate: Kinobeads, mixed HEK293/K-562/placenta lysate
BMPR2 = BMPR2 (UniProt Q13873); conditions: affinity matrix / lysate: Kinobeads, mixed HEK293/K-562/placenta lysate
BMPR2, sequence (Q13873 whole entry): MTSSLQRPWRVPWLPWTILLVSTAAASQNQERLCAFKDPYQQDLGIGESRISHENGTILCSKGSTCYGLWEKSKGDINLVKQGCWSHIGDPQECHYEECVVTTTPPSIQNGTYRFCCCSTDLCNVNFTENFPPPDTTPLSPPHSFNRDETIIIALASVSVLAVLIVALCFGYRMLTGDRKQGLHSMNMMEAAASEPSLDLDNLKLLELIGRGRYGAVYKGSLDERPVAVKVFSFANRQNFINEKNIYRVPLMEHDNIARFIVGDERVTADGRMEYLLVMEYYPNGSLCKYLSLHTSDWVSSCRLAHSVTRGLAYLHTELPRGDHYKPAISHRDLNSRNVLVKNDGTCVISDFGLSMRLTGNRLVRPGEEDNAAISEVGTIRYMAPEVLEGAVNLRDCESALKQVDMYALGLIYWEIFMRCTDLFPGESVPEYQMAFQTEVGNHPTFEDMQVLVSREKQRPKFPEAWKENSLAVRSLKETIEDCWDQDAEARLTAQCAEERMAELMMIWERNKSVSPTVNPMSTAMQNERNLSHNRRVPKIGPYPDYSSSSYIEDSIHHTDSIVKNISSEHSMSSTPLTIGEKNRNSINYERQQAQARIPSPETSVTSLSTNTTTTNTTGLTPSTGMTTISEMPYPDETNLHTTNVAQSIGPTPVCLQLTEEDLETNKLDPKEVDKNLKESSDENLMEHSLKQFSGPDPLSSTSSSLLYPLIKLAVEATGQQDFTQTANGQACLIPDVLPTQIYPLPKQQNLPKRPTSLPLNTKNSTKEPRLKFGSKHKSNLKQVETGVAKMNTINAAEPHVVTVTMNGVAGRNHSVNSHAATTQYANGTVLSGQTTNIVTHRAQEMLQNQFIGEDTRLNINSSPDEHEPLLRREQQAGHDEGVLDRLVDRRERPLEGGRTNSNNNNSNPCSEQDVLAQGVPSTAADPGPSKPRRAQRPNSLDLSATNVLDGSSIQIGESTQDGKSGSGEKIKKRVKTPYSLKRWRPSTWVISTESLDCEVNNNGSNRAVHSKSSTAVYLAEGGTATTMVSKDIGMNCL

CABC1 = CABC1 (UniProt Q8NI60); conditions: affinity matrix / lysate: Kinobeads, mixed HEK293/K-562/placenta lysate
CDC42BPG = CDC42BPG (UniProt Q6DT37); conditions: affinity matrix / lysate: Kinobeads, mixed HEK293/K-562/placenta lysate
CDC42BPG, sequence (Q6DT37 whole entry): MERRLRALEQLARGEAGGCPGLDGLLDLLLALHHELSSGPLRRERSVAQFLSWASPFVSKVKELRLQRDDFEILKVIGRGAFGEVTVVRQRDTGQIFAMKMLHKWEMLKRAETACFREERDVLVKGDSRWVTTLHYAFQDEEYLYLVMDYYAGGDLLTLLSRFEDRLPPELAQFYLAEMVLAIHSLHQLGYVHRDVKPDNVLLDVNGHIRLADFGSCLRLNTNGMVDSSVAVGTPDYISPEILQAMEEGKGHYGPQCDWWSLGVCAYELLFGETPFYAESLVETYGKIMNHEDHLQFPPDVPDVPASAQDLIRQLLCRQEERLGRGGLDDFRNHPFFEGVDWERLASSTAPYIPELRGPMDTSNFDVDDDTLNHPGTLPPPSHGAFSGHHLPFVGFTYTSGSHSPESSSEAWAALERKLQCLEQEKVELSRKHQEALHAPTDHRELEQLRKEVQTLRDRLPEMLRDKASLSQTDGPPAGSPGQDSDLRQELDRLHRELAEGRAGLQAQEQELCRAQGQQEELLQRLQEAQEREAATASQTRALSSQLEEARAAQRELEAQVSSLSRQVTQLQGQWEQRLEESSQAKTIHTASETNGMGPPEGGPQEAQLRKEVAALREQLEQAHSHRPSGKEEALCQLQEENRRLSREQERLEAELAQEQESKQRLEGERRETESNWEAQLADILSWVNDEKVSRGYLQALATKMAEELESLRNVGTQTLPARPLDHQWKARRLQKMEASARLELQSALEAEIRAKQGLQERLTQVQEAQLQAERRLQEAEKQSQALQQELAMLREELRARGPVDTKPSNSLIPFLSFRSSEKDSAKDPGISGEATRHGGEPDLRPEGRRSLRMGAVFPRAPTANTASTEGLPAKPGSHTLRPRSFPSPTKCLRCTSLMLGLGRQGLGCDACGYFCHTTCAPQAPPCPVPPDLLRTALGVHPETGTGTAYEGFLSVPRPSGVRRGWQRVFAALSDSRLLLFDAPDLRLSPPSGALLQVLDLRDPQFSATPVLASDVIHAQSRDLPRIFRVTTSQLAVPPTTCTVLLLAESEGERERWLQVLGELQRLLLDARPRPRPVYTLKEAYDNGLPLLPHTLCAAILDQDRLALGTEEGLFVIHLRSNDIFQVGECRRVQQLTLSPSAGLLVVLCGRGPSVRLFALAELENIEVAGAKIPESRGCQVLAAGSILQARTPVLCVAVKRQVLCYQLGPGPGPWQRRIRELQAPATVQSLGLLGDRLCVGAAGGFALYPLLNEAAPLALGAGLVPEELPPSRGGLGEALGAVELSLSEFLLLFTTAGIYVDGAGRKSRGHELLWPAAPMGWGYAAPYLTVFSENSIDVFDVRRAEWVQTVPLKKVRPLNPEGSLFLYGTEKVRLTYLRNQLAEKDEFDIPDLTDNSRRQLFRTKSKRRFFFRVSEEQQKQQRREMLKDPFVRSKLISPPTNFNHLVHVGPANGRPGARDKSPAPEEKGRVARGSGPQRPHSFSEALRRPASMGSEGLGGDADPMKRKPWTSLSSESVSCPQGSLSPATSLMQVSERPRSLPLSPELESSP

CHEK2 = CHEK2 (UniProt O96017); conditions: affinity matrix / lysate: Kinobeads, mixed HEK293/K-562/placenta lysate
CLK1 = CLK1 (UniProt P49759); conditions: affinity matrix / lysate: Kinobeads, mixed HEK293/K-562/placenta lysate
DAPK3 = DAPK3 (UniProt O43293); conditions: affinity matrix / lysate: Kinobeads, mixed HEK293/K-562/placenta lysate
EIF2AK4 = EIF2AK4 (UniProt Q9P2K8); conditions: affinity matrix / lysate: Kinobeads, mixed HEK293/K-562/placenta lysate
EPHB3 = EPHB3 (UniProt P54753); conditions: affinity matrix / lysate: Kinobeads, mixed HEK293/K-562/placenta lysate
FES = FES (UniProt P07332); conditions: affinity matrix / lysate: Kinobeads, mixed HEK293/K-562/placenta lysate
INSR = INSR (UniProt P06213); conditions: affinity matrix / lysate: Kinobeads, mixed HEK293/K-562/placenta lysate
IRAK3 = IRAK3 (UniProt Q9Y616); conditions: affinity matrix / lysate: Kinobeads, mixed HEK293/K-562/placenta lysate
MAP4K3 = MAP4K3 (UniProt Q8IVH8); conditions: affinity matrix / lysate: Kinobeads, mixed HEK293/K-562/placenta lysate
MASTL = MASTL (UniProt Q96GX5); conditions: affinity matrix / lysate: Kinobeads, mixed HEK293/K-562/placenta lysate
MINK1 = MINK1 (UniProt Q8N4C8); conditions: affinity matrix / lysate: Kinobeads, mixed HEK293/K-562/placenta lysate
NEK2 = NEK2 (UniProt P51955); conditions: affinity matrix / lysate: Kinobeads, mixed HEK293/K-562/placenta lysate
NEK6 = NEK6 (UniProt Q9HC98); conditions: affinity matrix / lysate: Kinobeads, mixed HEK293/K-562/placenta lysate
NEK6, sequence (Q9HC98 whole entry): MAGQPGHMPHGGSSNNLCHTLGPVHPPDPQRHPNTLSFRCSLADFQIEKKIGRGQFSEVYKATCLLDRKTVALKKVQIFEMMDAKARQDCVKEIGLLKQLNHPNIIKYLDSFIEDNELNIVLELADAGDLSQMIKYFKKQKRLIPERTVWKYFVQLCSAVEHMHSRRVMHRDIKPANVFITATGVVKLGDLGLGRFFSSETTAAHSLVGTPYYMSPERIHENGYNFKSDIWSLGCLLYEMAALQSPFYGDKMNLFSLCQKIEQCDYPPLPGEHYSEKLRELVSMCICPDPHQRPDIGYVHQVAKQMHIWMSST

NEK9 = NEK9 (UniProt Q8TD19); conditions: affinity matrix / lysate: Kinobeads, mixed HEK293/K-562/placenta lysate
NUAK1 = NUAK1 (UniProt O60285); conditions: affinity matrix / lysate: Kinobeads, mixed HEK293/K-562/placenta lysate
PCTK2 = PCTK2 (UniProt Q00537); conditions: affinity matrix / lysate: Kinobeads, mixed HEK293/K-562/placenta lysate
PDPK1 = PDPK1 (UniProt O15530); conditions: affinity matrix / lysate: Kinobeads, mixed HEK293/K-562/placenta lysate
PIK3C2B = PIK3C2B (UniProt O00750)
PIK3C2B, sequence (O00750 whole entry): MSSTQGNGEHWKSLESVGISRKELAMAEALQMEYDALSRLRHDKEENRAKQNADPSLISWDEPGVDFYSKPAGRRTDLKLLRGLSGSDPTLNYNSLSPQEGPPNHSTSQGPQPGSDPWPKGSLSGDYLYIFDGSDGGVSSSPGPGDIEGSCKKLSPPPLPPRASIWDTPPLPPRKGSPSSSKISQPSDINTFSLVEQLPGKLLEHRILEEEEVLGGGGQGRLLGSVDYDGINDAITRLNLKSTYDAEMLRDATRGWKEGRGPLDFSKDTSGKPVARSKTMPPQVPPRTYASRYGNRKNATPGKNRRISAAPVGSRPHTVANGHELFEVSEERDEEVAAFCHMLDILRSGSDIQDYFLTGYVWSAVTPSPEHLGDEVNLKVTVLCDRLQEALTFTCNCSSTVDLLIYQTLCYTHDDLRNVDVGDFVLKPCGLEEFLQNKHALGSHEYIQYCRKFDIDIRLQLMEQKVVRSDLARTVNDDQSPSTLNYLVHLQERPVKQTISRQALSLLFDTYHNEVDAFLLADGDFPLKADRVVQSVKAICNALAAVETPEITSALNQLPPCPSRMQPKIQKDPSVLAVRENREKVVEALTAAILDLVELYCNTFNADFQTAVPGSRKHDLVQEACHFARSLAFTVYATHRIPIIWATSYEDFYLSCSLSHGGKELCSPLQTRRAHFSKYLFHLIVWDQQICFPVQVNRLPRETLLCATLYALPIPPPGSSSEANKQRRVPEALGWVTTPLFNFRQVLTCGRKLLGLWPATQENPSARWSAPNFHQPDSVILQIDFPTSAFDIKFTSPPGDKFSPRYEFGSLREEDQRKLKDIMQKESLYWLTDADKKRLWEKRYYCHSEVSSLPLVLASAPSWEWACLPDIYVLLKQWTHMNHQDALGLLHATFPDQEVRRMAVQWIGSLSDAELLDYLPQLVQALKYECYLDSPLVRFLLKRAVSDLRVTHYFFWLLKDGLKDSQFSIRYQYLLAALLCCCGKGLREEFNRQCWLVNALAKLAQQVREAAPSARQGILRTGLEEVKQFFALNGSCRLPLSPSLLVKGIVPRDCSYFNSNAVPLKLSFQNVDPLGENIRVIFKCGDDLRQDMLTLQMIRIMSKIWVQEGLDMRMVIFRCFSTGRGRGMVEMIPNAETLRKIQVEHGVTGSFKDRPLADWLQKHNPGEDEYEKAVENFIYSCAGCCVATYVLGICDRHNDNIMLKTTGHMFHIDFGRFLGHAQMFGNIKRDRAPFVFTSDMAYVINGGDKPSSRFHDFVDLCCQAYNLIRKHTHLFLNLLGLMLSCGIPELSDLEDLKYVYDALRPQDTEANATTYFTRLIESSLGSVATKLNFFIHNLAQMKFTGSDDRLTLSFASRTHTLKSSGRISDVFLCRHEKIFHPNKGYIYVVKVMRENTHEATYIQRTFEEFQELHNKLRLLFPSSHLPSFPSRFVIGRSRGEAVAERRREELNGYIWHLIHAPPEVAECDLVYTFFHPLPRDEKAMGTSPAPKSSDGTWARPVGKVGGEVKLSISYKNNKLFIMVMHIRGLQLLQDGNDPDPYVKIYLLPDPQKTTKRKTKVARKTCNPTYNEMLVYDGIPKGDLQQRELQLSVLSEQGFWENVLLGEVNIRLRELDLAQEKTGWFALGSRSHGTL

PIP4K2B = PIP4K2B (UniProt P78356); conditions: affinity matrix / lysate: Kinobeads, mixed HEK293/K-562/placenta lysate
PIP5K3 = PIP5K3 (UniProt Q9Y2I7); conditions: affinity matrix / lysate: Kinobeads, mixed HEK293/K-562/placenta lysate
PRKAA1 = PRKAA1 (UniProt Q13131); conditions: affinity matrix / lysate: Kinobeads, mixed HEK293/K-562/placenta lysate
PRKAA2 = PRKAA2 (UniProt P54646); conditions: affinity matrix / lysate: Kinobeads, mixed HEK293/K-562/placenta lysate
STK16 = STK16 (UniProt O75716); conditions: affinity matrix / lysate: Kinobeads, mixed HEK293/K-562/placenta lysate
STK17B = STK17B (UniProt O94768); conditions: affinity matrix / lysate: Kinobeads, mixed HEK293/K-562/placenta lysate
STRADA = STRADA (UniProt Q7RTN6); conditions: affinity matrix / lysate: Kinobeads, mixed HEK293/K-562/placenta lysate
STRADA, sequence (Q7RTN6 whole entry): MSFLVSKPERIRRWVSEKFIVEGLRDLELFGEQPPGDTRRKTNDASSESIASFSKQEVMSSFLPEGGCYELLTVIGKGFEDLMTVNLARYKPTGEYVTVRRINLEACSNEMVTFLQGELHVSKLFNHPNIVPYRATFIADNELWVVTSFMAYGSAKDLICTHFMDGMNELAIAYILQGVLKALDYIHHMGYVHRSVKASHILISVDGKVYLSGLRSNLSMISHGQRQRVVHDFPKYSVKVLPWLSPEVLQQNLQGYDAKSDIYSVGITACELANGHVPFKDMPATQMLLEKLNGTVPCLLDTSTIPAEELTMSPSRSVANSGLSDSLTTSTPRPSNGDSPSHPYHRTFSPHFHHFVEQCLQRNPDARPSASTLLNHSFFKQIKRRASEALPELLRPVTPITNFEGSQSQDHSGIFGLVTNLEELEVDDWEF

TGFBR1 = TGFBR1 (UniProt P36897); conditions: affinity matrix / lysate: Kinobeads, mixed HEK293/K-562/placenta lysate
ULK3 = ULK3 (UniProt Q6PHR2); conditions: affinity matrix / lysate: Kinobeads, mixed HEK293/K-562/placenta lysate
[1] = affinity matrix / lysate: Lipid Kinobeads, mixed HeLa/Jurkat/K-562 lysate

Measured: apparent dissociation constant (-log10 M)

COc1ccc(-c2ccc3c(N4CCOC[C@@H]4C)nc(N4CCOC[C@@H]4C)nc3n2)cc1CO [AZD8055]
< 6: ABL2 | ACVR1 | ARAF | BMPR2 | CABC1 | CDC42BPG | CHEK2 | CLK1 | DAPK3 | EIF2AK4 | EPHB3 | FES | INSR | IRAK3 | MAP4K3 | MASTL | MINK1 | NEK2 | NEK6 | NEK9 | NUAK1 | PCTK2 | PDPK1 | PIK3C2B; [1] | PIP4K2B | PIP5K3 | PRKAA1 | PRKAA2 | STK16 | STK17B | STRADA | TGFBR1 | ULK3

CCNC(=O)Nc1ccc(-c2nc(N3CCOC[C@@H]3C)c3c(n2)C(C)(C)S(=O)(=O)C3)cc1 [CZ415]
< 6: ABL2 | ACVR1 | ARAF | BMPR2 | CABC1 | CDC42BPG | CHEK2 | CLK1 | DAPK3 | EIF2AK4 | EPHB3 | FES | INSR | IRAK3 | MAP4K3 | MASTL | MINK1 | NEK2 | NEK6 | NEK9 | NUAK1 | PCTK2 | PDPK1 | PIK3C2B; affinity matrix / lysate: Kinobeads, mixed HEK293/K-562/placenta lysate | PIK3C2B; [1] | PIP4K2B | PIP5K3 | PRKAA1 | PRKAA2 | STK16 | STK17B | STRADA | TGFBR1 | ULK3
